Legend:
Assay in all cases: Z'-LYTE kinase panel
Assay type in all cases: biochemical
FGFR2 = biological target: T1, FGFR2 (Homo sapiens, UniProt P21802)
T1 construct: purchased ThermoFisher (SelectScreen, Z'-LYTE)
How it was run: (§1)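 Standard Z′-LYTE protocol applied. Compound fixed at 10 µM. Output: % inhibition. Panel size 225 kinases.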

STK3 (MST2) = biological target: T2, STK3 (MST2) (Homo sapiens, UniProt Q13188)
T2 construct: purchased ThermoFisher (SelectScreen, Z'-LYTE)
T2 sequence (Q13188 1-491): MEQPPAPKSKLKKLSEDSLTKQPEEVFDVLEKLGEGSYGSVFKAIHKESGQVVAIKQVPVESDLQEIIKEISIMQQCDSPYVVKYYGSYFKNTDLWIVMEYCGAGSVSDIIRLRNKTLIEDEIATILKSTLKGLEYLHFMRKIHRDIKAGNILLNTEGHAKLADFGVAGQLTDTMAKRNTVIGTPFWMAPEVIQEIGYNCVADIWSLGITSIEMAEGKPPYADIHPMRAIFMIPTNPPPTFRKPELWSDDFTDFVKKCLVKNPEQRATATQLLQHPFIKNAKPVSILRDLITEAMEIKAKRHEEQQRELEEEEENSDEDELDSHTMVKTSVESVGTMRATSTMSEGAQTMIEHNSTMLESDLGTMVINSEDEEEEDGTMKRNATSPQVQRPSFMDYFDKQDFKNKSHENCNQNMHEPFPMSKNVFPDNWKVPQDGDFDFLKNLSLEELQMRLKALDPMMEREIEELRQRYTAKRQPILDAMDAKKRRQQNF
How it was run: as §1

GRK4 = biological target: T3, GRK4 (Homo sapiens, UniProt P32298)
T3 construct: purchased ThermoFisher (SelectScreen, Z'-LYTE)
How it was run: as §1

NEK9 = biological target: T4, NEK9 (Homo sapiens, UniProt Q8TD19)
T4 construct: purchased ThermoFisher (SelectScreen, Z'-LYTE)
T4 sequence (Q8TD19 1-979): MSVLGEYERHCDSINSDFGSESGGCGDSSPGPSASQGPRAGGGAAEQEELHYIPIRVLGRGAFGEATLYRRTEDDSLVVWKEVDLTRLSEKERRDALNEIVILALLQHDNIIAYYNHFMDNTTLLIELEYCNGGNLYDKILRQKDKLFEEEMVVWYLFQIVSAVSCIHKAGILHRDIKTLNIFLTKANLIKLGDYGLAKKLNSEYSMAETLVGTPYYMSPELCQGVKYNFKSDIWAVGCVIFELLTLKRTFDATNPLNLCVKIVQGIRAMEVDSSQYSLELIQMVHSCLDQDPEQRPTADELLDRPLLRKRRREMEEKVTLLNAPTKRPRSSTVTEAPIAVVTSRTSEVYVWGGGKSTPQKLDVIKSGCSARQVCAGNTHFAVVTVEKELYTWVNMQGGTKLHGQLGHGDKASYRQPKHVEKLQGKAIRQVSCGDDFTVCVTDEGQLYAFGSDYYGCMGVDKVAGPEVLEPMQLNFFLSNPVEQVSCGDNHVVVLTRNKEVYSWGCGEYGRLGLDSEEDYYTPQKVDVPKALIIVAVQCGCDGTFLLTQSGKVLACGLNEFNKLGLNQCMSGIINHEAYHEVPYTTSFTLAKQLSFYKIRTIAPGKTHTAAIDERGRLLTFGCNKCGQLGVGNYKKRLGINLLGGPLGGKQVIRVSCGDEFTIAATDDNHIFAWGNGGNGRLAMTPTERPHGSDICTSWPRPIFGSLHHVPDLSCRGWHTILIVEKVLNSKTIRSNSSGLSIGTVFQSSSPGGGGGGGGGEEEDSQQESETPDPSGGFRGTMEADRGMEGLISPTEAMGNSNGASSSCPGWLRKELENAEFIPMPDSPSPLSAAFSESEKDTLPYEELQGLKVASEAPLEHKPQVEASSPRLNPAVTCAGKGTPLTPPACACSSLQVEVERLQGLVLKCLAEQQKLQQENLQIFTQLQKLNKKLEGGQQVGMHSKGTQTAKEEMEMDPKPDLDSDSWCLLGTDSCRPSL
How it was run: as §1

PRKX = biological target: T5, PRKX (Homo sapiens, UniProt P51817)
T5 construct: purchased ThermoFisher (SelectScreen, Z'-LYTE)
T5 sequence (P51817 1-358): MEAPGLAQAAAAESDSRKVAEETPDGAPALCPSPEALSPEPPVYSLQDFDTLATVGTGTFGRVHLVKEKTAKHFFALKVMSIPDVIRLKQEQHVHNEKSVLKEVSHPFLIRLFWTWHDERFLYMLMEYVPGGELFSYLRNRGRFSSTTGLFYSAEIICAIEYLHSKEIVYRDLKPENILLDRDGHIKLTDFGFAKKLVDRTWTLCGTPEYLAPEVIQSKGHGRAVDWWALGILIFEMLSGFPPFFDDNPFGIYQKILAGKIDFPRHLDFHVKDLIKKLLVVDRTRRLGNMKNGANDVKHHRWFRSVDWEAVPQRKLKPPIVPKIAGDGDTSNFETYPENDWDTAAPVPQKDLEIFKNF
How it was run: as §1

DNA-PK = biological target: T6, DNA-PK (Homo sapiens, UniProt P78527)
T6 construct: purchased ThermoFisher (SelectScreen, Z'-LYTE)
How it was run: as §1

ALK = biological target: T7, ALK (Homo sapiens, UniProt Q9UM73)
T7 construct: purchased ThermoFisher (SelectScreen, Z'-LYTE)
T7 sequence (Q9UM73 19-1620): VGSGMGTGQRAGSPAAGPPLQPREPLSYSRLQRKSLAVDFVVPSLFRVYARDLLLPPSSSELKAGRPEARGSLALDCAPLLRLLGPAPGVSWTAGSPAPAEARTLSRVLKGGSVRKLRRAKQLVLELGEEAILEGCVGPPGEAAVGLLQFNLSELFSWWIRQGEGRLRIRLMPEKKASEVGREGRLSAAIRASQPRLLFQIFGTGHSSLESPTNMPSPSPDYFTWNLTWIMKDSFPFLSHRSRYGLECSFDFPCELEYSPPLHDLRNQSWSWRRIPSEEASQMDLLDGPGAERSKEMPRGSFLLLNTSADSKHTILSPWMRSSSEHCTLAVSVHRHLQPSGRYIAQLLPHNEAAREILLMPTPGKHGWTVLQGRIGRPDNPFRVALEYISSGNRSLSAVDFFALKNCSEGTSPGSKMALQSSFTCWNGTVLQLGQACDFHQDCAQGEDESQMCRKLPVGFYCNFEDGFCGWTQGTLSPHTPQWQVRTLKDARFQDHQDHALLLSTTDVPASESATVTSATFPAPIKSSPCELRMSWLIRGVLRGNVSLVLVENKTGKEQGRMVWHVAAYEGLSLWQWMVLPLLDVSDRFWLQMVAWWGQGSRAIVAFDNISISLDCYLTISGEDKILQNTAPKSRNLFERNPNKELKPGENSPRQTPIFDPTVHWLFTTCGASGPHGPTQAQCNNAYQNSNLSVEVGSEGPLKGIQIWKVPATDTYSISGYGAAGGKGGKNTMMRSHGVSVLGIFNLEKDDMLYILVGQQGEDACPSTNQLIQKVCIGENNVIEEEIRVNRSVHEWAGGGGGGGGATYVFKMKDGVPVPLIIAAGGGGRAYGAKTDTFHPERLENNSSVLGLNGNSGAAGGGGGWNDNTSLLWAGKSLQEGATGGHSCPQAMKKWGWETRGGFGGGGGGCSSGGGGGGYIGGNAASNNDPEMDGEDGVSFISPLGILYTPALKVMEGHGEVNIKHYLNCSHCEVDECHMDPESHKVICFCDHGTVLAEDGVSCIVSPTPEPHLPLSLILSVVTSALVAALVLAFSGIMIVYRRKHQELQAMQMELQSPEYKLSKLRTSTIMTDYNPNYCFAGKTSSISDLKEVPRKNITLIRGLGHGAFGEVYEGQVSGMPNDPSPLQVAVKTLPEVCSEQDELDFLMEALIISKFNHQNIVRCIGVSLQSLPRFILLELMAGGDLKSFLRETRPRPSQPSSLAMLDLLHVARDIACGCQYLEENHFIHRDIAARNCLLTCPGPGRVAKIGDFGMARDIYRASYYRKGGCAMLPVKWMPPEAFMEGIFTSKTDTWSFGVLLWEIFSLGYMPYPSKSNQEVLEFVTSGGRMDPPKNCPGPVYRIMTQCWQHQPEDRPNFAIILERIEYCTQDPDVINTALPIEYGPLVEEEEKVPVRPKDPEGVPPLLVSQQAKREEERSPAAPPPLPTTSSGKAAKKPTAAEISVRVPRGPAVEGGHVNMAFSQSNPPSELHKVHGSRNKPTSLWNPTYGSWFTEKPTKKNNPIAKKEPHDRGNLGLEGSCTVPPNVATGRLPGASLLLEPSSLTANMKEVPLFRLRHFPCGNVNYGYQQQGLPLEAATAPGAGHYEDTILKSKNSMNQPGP
How it was run: as §1

GRK5 = biological target: T8, GRK5 (Homo sapiens, UniProt P34947)
T8 construct: purchased ThermoFisher (SelectScreen, Z'-LYTE)
T8 sequence (P34947 whole entry): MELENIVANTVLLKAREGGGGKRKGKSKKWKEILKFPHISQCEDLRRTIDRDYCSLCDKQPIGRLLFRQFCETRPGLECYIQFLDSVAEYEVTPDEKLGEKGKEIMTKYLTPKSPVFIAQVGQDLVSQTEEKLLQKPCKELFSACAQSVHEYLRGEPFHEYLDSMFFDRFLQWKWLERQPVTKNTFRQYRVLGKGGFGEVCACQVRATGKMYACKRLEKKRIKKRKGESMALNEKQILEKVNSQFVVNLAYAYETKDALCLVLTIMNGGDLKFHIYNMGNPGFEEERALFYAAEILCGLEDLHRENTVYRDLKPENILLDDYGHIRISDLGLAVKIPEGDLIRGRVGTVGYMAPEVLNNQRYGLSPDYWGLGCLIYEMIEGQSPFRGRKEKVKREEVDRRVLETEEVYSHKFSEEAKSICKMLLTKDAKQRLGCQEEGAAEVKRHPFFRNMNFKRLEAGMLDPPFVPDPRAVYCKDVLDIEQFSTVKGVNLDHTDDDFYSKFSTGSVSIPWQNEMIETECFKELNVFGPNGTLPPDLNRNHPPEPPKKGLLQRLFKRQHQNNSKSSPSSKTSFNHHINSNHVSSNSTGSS
How it was run: as §1

PIM2 = biological target: T9, PIM2 (Homo sapiens, UniProt Q9P1W9)
T9 construct: purchased ThermoFisher (SelectScreen, Z'-LYTE)
T9 sequence (Q9P1W9 whole entry): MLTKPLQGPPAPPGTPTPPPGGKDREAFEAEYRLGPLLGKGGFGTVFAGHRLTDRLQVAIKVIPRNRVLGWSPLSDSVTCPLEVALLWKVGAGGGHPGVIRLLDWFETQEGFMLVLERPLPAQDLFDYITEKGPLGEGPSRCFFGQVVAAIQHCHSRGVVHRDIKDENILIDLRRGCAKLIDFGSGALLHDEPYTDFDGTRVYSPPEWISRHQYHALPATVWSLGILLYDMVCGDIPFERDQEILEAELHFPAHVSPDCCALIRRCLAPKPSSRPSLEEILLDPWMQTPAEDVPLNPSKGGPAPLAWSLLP
How it was run: as §1

NTRK1 (TRKA) = biological target: T10, NTRK1 (TRKA) (Homo sapiens, UniProt P04629)
T10 construct: purchased ThermoFisher (SelectScreen, Z'-LYTE)
How it was run: as §1

PRKCG (PKC gamma) = biological target: T11, PRKCG (PKC gamma) (Homo sapiens, UniProt P05129)
T11 construct: purchased ThermoFisher (SelectScreen, Z'-LYTE)
How it was run: as §1

PAK3 = biological target: T12, PAK3 (Homo sapiens, UniProt O75914)
T12 construct: purchased ThermoFisher (SelectScreen, Z'-LYTE)
T12 sequence (O75914 whole entry): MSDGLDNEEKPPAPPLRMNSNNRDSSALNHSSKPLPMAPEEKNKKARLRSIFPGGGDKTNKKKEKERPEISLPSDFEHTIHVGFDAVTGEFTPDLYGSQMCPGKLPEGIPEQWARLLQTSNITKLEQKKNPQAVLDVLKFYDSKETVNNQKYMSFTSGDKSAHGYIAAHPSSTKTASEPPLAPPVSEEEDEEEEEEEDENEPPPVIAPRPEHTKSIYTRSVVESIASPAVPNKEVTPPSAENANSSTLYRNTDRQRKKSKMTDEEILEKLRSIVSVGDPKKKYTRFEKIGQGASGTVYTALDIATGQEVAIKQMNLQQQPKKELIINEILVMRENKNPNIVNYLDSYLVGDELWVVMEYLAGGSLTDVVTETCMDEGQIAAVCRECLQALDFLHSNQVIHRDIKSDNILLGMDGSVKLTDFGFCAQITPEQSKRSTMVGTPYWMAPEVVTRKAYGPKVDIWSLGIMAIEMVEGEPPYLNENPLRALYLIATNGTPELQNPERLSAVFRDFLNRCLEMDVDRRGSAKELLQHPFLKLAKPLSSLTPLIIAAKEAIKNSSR
How it was run: as §1

TEK (Tie2) = biological target: T13, TEK (Tie2) (Homo sapiens, UniProt Q02763)
T13 construct: purchased ThermoFisher (SelectScreen, Z'-LYTE)
How it was run: as §1

RPS6KA5 (MSK1) = biological target: T14, RPS6KA5 (MSK1) (Homo sapiens, UniProt O75582)
T14 construct: purchased ThermoFisher (SelectScreen, Z'-LYTE)
T14 sequence (O75582 whole entry): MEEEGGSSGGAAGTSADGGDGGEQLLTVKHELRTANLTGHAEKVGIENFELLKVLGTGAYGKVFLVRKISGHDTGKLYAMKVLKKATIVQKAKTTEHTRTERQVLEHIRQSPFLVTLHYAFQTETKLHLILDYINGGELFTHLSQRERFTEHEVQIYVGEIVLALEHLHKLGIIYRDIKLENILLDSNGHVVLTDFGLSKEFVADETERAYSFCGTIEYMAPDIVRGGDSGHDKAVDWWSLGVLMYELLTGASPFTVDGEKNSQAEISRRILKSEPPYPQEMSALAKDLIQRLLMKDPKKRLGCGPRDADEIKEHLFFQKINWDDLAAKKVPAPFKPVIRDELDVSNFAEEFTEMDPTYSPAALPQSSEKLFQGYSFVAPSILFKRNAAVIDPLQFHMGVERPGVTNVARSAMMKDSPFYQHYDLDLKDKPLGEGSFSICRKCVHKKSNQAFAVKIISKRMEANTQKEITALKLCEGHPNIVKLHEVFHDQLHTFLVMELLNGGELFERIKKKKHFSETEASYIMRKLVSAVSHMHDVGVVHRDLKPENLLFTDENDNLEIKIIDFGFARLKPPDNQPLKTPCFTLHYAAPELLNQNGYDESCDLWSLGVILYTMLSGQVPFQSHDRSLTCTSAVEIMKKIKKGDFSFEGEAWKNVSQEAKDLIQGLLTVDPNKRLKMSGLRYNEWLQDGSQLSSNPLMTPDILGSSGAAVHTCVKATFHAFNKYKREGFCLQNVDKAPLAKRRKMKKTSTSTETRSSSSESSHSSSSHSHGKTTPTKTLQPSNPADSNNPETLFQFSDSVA
How it was run: as §1

KDR (VEGFR2) = biological target: T15, KDR (VEGFR2) (Homo sapiens, UniProt P35968)
T15 construct: purchased ThermoFisher (SelectScreen, Z'-LYTE)
How it was run: as §1

PKN1 (PRK1) = biological target: T16, PKN1 (PRK1) (Homo sapiens, UniProt Q16512)
T16 construct: purchased ThermoFisher (SelectScreen, Z'-LYTE)
T16 sequence (Q16512 whole entry): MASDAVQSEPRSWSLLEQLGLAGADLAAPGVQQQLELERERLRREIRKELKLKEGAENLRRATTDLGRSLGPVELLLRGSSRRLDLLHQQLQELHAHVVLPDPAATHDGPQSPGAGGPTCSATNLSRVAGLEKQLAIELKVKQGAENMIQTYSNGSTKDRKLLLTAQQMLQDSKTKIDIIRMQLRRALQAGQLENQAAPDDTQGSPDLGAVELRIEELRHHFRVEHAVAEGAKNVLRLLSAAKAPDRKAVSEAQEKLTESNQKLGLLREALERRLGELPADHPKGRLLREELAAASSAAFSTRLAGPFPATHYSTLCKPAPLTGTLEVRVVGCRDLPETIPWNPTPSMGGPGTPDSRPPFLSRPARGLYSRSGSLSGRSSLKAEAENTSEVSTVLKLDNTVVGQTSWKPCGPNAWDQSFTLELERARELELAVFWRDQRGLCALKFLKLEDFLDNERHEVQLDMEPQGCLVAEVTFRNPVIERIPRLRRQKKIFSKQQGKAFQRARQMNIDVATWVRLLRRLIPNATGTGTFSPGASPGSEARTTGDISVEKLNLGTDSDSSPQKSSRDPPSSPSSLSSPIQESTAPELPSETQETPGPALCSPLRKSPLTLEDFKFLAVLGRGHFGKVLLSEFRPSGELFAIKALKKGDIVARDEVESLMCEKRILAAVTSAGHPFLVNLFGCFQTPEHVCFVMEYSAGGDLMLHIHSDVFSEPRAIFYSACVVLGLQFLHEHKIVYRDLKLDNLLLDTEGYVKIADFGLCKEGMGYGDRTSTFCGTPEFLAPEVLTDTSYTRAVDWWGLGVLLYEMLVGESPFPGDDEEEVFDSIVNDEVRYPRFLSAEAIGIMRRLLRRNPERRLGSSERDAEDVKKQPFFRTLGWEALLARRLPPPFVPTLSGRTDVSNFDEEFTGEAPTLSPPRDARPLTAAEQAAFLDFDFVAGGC
How it was run: as §1

Compound | inhibition at 10 µM (FGFR2) [%] | inhibition at 10 µM (STK3 (MST2)) [%] | inhibition at 10 µM (GRK4) [%] | inhibition at 10 µM (NEK9) [%] | inhibition at 10 µM (PRKX) [%] | inhibition at 10 µM (DNA-PK) [%] | inhibition at 10 µM (ALK) [%] | inhibition at 10 µM (GRK5) [%] | inhibition at 10 µM (PIM2) [%] | inhibition at 10 µM (NTRK1 (TRKA)) [%] | inhibition at 10 µM (PRKCG (PKC gamma)) [%] | inhibition at 10 µM (PAK3) [%] | inhibition at 10 µM (TEK (Tie2)) [%] | inhibition at 10 µM (RPS6KA5 (MSK1)) [%] | inhibition at 10 µM (KDR (VEGFR2)) [%] | inhibition at 10 µM (PKN1 (PRK1)) [%] | also measured
XMD8-92 [Compound 2, reference compound] |  |  |  |  |  |  |  |  |  |  |  |  |  |  |  |  | FGFR2 % Inhibition (FGFR2; 10 µM compound, ATP Km app): 33%; STK3 (MST2) % Inhibition (STK3 (MST2); 10 µM compound, ATP Km app): -12%; GRK4 % Inhibition (GRK4; 10 µM compound, ATP Km app): 93%; NEK9 % Inhibition (NEK9; 10 µM compound, ATP Km app): -0.532%; PRKX % Inhibition (PRKX; 10 µM compound, ATP Km app): 25%; DNA-PK % Inhibition (DNA-PK; 10 µM compound, ATP Km app): 38%; ALK % Inhibition (ALK; 10 µM compound, ATP Km app): 16%; GRK5 % Inhibition (GRK5; 10 µM compound, ATP Km app): 6%; PIM2 % Inhibition (PIM2; 10 µM compound, ATP Km app): 22%; NTRK1 (TRKA) % Inhibition (NTRK1 (TRKA); 10 µM compound, ATP Km app): 43%; PRKCG (PKC gamma) % Inhibition (PRKCG (PKC gamma); 10 µM compound, ATP Km app): 62%; PAK3 % Inhibition (PAK3; 10 µM compound, ATP Km app): 71%; TEK (Tie2) % Inhibition (TEK (Tie2); 10 µM compound, ATP Km app): 6.54%; RPS6KA5 (MSK1) % Inhibition (RPS6KA5 (MSK1); 10 µM compound, ATP Km app): 47%; KDR (VEGFR2) % Inhibition (KDR (VEGFR2); 10 µM compound, ATP Km app): 81%; PKN1 (PRK1) % Inhibition (PKN1 (PRK1); 10 µM compound, ATP Km app): 1.26%
Cc1ncc(-c2nc(Nc3ccc(C(=O)NCCN4CCCCC4)cc3)ncc2F)n1C(C)C [Compound 3] | 88 | 79 | 41 | 18 | 84 | 33 | 78 | 39 | 40 | 76 | 89 | 37 | 73 | 86 | 100 | 62 | 
Cc1cc(Nc2nc(N)nn2C(=O)NC(C)C)ccc1Cl [Compound 5] | 53 | 53 | 7 | 1.46 | 8.43 | 13 | 20 | -0.422 | -13 | 36 | 10 | -12 | 40 | 6.35 | 59 | -3.54 | 

Source: paper PMC4854315, “Discovery of a novel allosteric inhibitor-binding site in ERK5: comparison with the canonical kinase hinge ATP-binding site” (Acta Crystallographica. Section D, Structural Biology, 2016)
